From PubChem BioAssay AID2060337 (Molecular Pharmacology Branch, DTP, NCI, 2025)

Tested on: 832693-133-R-J1-PDC multi-cell spheroids, viability
Experiment: Anticancer human tumor 832693-133-R-J1-PDC patient-derived head and neck squamous carcinoma cell line growth inhibition [IpAb]
Details: for IC50: curve of first compound; for viability, T/C: stronger effect = lower value
Source text: Combinatorial screen of targeted agents with ipatasertib and abemaciclib in multi-cell type tumor spheroids
A high-throughput screen of multi-cell type tumor spheroids was designed to identify active combinations of targeted small molecules and ipatasertib or abemaciclib. Complex spheroids include a stromal component modeled by human endothelial cells (HUVEC) and fibroblasts modeled by human mesenchymal stem cells (MSCs). The concentration ranges selected for each drug and investigational agent were based upon clinically achievable concentrations if the clinical Cmax of the agent was known.
Compounds. The drugs and investigational agents: ipatasertib (NSC767898), abemaciclib(NSC768073), selumetinib (NSC741078), trametinib (758246), adavosertib (NSC754352), everolimus (NSC733504), sapanisertib (NSC764658), vemurafenib (NSC761431), venetoclax (NSC766270), copanlisib (NSC809693), apelisib (NSC765974), palbociblib (NSC758247), vemurafenib (NSC761431), dabrafenib (NSC764134), ravoxertinib (NSC781343), BMS-387032 (NSC767048), sotorasib (NSC818433), talazoparib (NSC767125) and afursertib (NSC778305), were obtained from the National Cancer Institute (NCI) Developmental Therapeutics Program Chemical Repository. The FDA-approved anticancer drug set is available from the NCI Developmental Therapeutics Program. […] The stock solutions were prepared in dimethyl sulfoxide (DMSO, Sigma-Aldrich, St. Louis, MO, cat. D2650) at 800-fold the tested concentration and stored at -70 degrees C prior to their use. All drugs and investigational agents were tested over a range starting from a high concentration at or near the clinical Cmax and decreasing in half-log increments. If the clinical Cmax for an agent had not been determined, the highest concentration tested was 10 microM.
NCI60 Cell Culture. NCI60 cell lines were obtained from the NCI Developmental Therapeutics Program Tumor Repository. For each lot of cells, the Repository performed Applied Biosystems AmpFLSTR Identifiler testing with PCR amplification to confirm consistency with the published Identifier STR profile for each cell line. Cells were kept in continuous culture for no more than 20 passages. The optimal seeding densities for each of the cell lines at each time point assessed were determined prior to performing the concentration response studies. Briefly, the NCI60 human tumor lines were grown as monolayers in RPMI 1640 medium supplemented with 10% FBS and 2 mmol/L L-glutamine.
An additional 9 lines were from the NCI60 cell line panel including MDA-MB-231 breast carcinoma, MDA-MB-468 breast carcinoma, MCF7 breast carcinoma, Hs578T breast carcinoma, MALME-3M melanoma, SK-MEL-2 melanoma, SK-OV-3 ovarian carcinoma, DU-145 prostate carcinoma, PC-3 prostate carcinoma, all cell lines along with major genetic alterations are listed on Table 2. Pooled donor human umbilical vein endothelial cells (HUVEC, Lonza, cat. CC-2519) and human mesenchymal stem cells (hMSC, Lonza, cat. PT-2501) were purchased from Lonza (Walkersville, MD).
PDMR cell lines were grown in complete medium (DC medium): Dulbecco's modified Eagle's medium (DMEM)/F12 supplemented with 5% fetal bovine serum (FBS), 2 mM L-glutamine, 100 U/mL penicillin and 100 µg/ml streptomycin, 0.4 µg/ml hydrocortisone, 10 ng/ml epidermal growth factor (EGF) recombinant human protein, 24 µg/mL adenine, and 0.1 mg/mL primocin. During culture from frozen stock vials, PDMR cells were cultured in the same medium containing 10 µM Y-27632 (see Table 3). The PDCs were cultured in complete DMEM/F12 media without 10 microM Y-27632 dihydrochloride for at least two passages prior to the screen. The pooled donor HUVEC and hMSC were cultured in endothelial cell growth medium 2 (PromoCell, Heidelberg, Germany, cat. C-22011) and mesenchymal stem cell growth medium 2 (PromoCell, cat. C-28009), respectively. For all experiments, HUVEC and hMSC were used at passages </=5.
[…]

[1] = second compound 0.1 µM, first compound 0.0316 µM
[2] = second compound 0.1 µM, first compound 0.1 µM
[3] = second compound 0.1 µM, first compound 0.316 µM
[4] = second compound 0.1 µM, first compound 1 µM
[5] = second compound 0.1 µM, first compound 3.16 µM
[6] = second compound 0.1 µM, first compound 10 µM
[7] = second compound 0.316 µM, first compound 0.0316 µM
[8] = second compound 0.316 µM, first compound 0.1 µM
[9] = second compound 0.316 µM, first compound 0.316 µM
[10] = second compound 0.316 µM, first compound 1 µM
[11] = second compound 0.316 µM, first compound 3.16 µM
[12] = second compound 0.316 µM, first compound 10 µM
[13] = second compound 1 µM, first compound 0.0316 µM
[14] = second compound 1 µM, first compound 0.1 µM
[15] = second compound 1 µM, first compound 0.316 µM
[16] = second compound 1 µM, first compound 1 µM
[17] = second compound 1 µM, first compound 3.16 µM
[18] = second compound 1 µM, first compound 10 µM
[19] = second compound 3.16 µM, first compound 0.0316 µM
[20] = second compound 3.16 µM, first compound 0.1 µM
[21] = second compound 3.16 µM, first compound 0.316 µM
[22] = second compound 3.16 µM, first compound 1 µM
[23] = second compound 3.16 µM, first compound 3.16 µM
[24] = second compound 3.16 µM, first compound 10 µM
[25] = second compound 10 µM, first compound 0.0316 µM
[26] = second compound 10 µM, first compound 0.1 µM
[27] = second compound 10 µM, first compound 0.316 µM
[28] = second compound 10 µM, first compound 1 µM
[29] = second compound 10 µM, first compound 3.16 µM
[30] = second compound 10 µM, first compound 10 µM
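Note: spheroids exposed to the drugs for one week before the viability readout.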
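Throughout, for viability, T/C: 100% = DMSO vehicle control wells.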

SMILES: Cc1nc(NC(=O)N2CCCC2C(N)=O)sc1-c1ccnc(C(C)(C)C(F)(F)F)c1 (stereo not given) + CC(C)NCC(C(=O)N1CCN(c2ncnc3c2C(C)CC3O)CC1)c1ccc(Cl)cc1
- IC50 (second compound 0.1 µM): 452 nM
- IC50 (second compound 0.316 µM): 260 nM
- IC50 (second compound 1 µM): 40.9 nM
- IC50 (second compound 3.16 µM): < 31.6 nM
- IC50 (second compound 10 µM): 45 nM
- viability, T/C [1]: 90.3%
- viability, T/C [2]: 78.8%
- viability, T/C [3]: 51.3%
- viability, T/C [4]: 41%
- viability, T/C [5]: 14.1%
- viability, T/C [6]: 4.68%
- viability, T/C [7]: 77.8%
- viability, T/C [8]: 64.2%
- viability, T/C [9]: 49%
- viability, T/C [10]: 23.8%
- viability, T/C [11]: 12.8%
- viability, T/C [12]: 3.31%
- viability, T/C [13]: 52.2%
- viability, T/C [14]: 41.5%
- viability, T/C [15]: 26.8%
- viability, T/C [16]: 16%
- viability, T/C [17]: 9.89%
- viability, T/C [18]: 2.93%
- viability, T/C [19]: 46%
- viability, T/C [20]: 32.8%
- viability, T/C [21]: 24.4%
- viability, T/C [22]: 16.3%
- viability, T/C [23]: 10.7%
- viability, T/C [24]: 3.55%
- viability, T/C [25]: 55.6%
- viability, T/C [26]: 38.4%
- viability, T/C [27]: 28.6%
- viability, T/C [28]: 19.1%
- viability, T/C [29]: 13.3%
- viability, T/C [30]: 3.58%

SMILES: C=CC(=O)N1CCN(c2nc(=O)n(-c3c(C)ccnc3C(C)C)c3nc(-c4c(O)cccc4F)c(F)cc23)C(C)C1 (stereo not given) + CC(C)NCC(C(=O)N1CCN(c2ncnc3c2C(C)CC3O)CC1)c1ccc(Cl)cc1
- IC50 (second compound 0.1 µM): > 10000 nM
- IC50 (second compound 0.316 µM): 4460 nM
- IC50 (second compound 1 µM): 237 nM
- IC50 (second compound 3.16 µM): 309 nM
- IC50 (second compound 10 µM): 3740 nM
- viability, T/C [1]: 96.1%
- viability, T/C [2]: 91.6%
- viability, T/C [3]: 86%
- viability, T/C [4]: 92.2%
- viability, T/C [5]: 104%
- viability, T/C [6]: 77.3%
- viability, T/C [7]: 81.1%
- viability, T/C [8]: 75.3%
- viability, T/C [9]: 70.9%
- viability, T/C [10]: 67.2%
- viability, T/C [11]: 56.6%
- viability, T/C [12]: 36.6%
- viability, T/C [13]: 53.6%
- viability, T/C [14]: 55%
- viability, T/C [15]: 48.2%
- viability, T/C [16]: 41.8%
- viability, T/C [17]: 34.7%
- viability, T/C [18]: 18.8%
- viability, T/C [19]: 55.7%
- viability, T/C [20]: 52.4%
- viability, T/C [21]: 49.1%
- viability, T/C [22]: 43%
- viability, T/C [23]: 36.8%
- viability, T/C [24]: 17%
- viability, T/C [25]: 53.4%
- viability, T/C [26]: 69%
- viability, T/C [27]: 65.8%
- viability, T/C [28]: 57.3%
- viability, T/C [29]: 56%
- viability, T/C [30]: 18.4%
